Data from paper PMC10459042, “Synthesis of 1,2,3-Triazole-Containing Methoxylated Cinnamides and Their Antileishmanial Activity against the Leishmania braziliensis Species” (Pharmaceuticals, 2023).
Values after ≈ are worked out from the molar mass of the structure shown.

Key:
[1] = test system: Leishmania braziliensis promastigotes; experiment: Depolarization of mitochondrial membrane potential (ΔΨm), JC-1; assay type: cell-based; settings: one IC50 value, 48 h at 24 °C; non-treated parasites 7.2
Experimental: Leishmania braziliensis promastigotes (1 × 10^7 cells/mL) were treated with compound 28 (at a concentration corresponding to one IC50 value) for 48 h at 24 °C. The parasites (3 × 10^6 cells/mL) were then labeled with JC-1 (5 µg/mL, Sigma-Aldrich, St. Louis, MO, USA) for 30 min at 37 °C. After washing twice with PBS to remove the non-internalized dye, the samples were added to a black 96-well plate, and the ΔΨm was analyzed in a spectrofluorometer (FLx800, BioTek Instruments, Winooski, VT, USA) with an excitation filter of 485 nm and emission wavelength of 528 nm and […] to measure the green and red fluorescence, respectively. The ΔΨm was determined using the ratio between the red/green fluorescence intensity. Parasites that were exposed to 1.3 µg/mL (5.0 µmol/L) of FCCP (Sigma-Aldrich, St. Louis, MO, USA) for 20 min were used as a control. […]
Figure 4 ΔΨm and ROS production in Leishmania after exposure to Compound 28. […] (A) Depolarization of ΔΨm was evaluated using the JC-1 fluorescent probe. Samples were analyzed fluorometrically, and the results are expressed as the ratio of red/green fluorescence. […] (B) ROS production was evaluated using the H2DCFDA probe. The fluorescence intensity was measured by fluorimetry, and the results are expressed as the fold increase in the ROS level compared with the non-treated control. […]

[2] = test system: L. braziliensis-infected macrophages; experiment: ROS levels in Leishmania-infected macrophages (H2DCFDA); assay type: cell-based, Leishmania braziliensis; settings: 5.0 µg/mL, 48 h at 37 °C
Experimental: Macrophages (1 × 10^6 cells/mL) were incubated in 96-well culture plates (Nunc, Nunclon, Roskilde, Denmark) and infected with L. braziliensis promastigotes (at a ratio of 10 parasites per cell). The infected macrophages were either left untreated or treated with Compound 28 (at a concentration of 5.0 µg/mL) for 48 h at 37 °C in 5% CO2. The cells were washed with PBS and incubated with 20 μmol/L H2DCFDA (Molecular Probes, Eugene, Oregon, USA) for 30 min in the dark. The fluorescence intensity was measured using a spectrofluorometer (FLx800; BioTek Instruments, Winooski, VT, USA) at 485 nm excitation and 528 nm emission. As a positive control, the infected macrophages were incubated with H2O2 at a concentration of 0.02 µg/mL (0.5 µmol/L). Parasites that were untreated with Compound 28 and not labeled with the fluorescent probe were used as the sample blank.
Figure 3 Production of ROS in L. braziliensis-infected macrophages treated with Compound 28. Leishmania braziliensis-infected macrophages (1 × 10^5 cells) were incubated with Compound 28 (5.0 µg/mL) for 48 h at 37 °C in a 5% CO2 environment. Subsequently, 2′,7′-dichlorodihydrofluorescein diacetate (H2DCFDA, 9.7 μg/mL) was added for 30 min under dark conditions. The fluorescence levels were measured in a spectrofluorometer at 485/528 nm. H2O2 (0.5 µmol/L) was used as a positive control. […]

[3] = test system: L. braziliensis promastigotes; experiment: ROS production in promastigotes (H2DCFDA); assay type: cell-based, Leishmania braziliensis; settings: one IC50 value, 48 h at 24 °C
Experimental: After treatment with Compound 28 (at a concentration corresponding to one IC50 value) for 48 h at 24 °C, L. braziliensis promastigotes were washed with PBS, and the parasite concentration was adjusted to 3 × 10^6 cells per well. H2DCFDA (Sigma-Aldrich, St. Louis, MO, USA) was then added and incubated for 30 min in the dark, and samples were read in a fluorometric microplate reader (FLx800, BioTek Instruments, Winooski, VT, USA) with excitation and emission wavelengths of 485 and 528 nm, respectively. Parasites that were untreated or treated with Compound 28 and not labeled with the fluorescent probe were used as the blank.
Figure 4 ΔΨm and ROS production in Leishmania after exposure to Compound 28. Leishmania braziliensis promastigotes were not exposed (negative control) or exposed to Compound 28 (at a concentration corresponding to the IC50 value) for 48 h. (A) Depolarization of ΔΨm was evaluated using the JC-1 fluorescent probe. Samples were analyzed fluorometrically, and the results are expressed as the ratio of red/green fluorescence. FCCP ([…]) was used as a positive control. (B) ROS production was evaluated using the H2DCFDA probe. The fluorescence intensity was measured by fluorimetry, and the results are expressed as the fold increase in the ROS level compared with the non-treated control. H2O2-treated parasites were used as a positive control. […]

[4] = test system: Leishmania braziliensis stationary promastigotes; experiment: In vitro antileishmanial activity against promastigotes (MTT); assay type: cell-based
Experimental: The study was approved by the Committee for the Ethical Handling of Research Animals from the Federal University of Minas Gerais (protocol number 085/2017). Leishmania braziliensis (MHOM/BR/1975/M2904) promastigotes were grown at 24 °C in Schneider’s medium (Sigma-Aldrich, USA) supplemented with 20% heat-inactivated fetal bovine serum (FBS, Sigma-Aldrich, USA) and 20 mmol/L L-glutamine at pH 7.4 [65].
(§1) The in vitro antileishmanial activity was evaluated by incubating the promastigotes or axenic amastigotes (1 × 10^6 cells/well) with the 24 synthetic derivatives (Compounds 5–28; 0 to 600 µg/mL) in 96-well culture plates (Nunc, Nunclon, Roskilde, Denmark) for 48 h at 24 °C. Due to the difficulty in obtaining a high concentration of murine macrophages, the cytotoxicity experiment was evaluated by incubating such cells (5 × 10^5 per mL) with Compound 28 (0 to 600 µg/mL), which presented the best antileishmanial activity, for 48 h at 37 °C in a 5% CO2 environment. AmpB (0 to 10 µg/mL; Sigma-Aldrich, St. Louis, MO, USA) was used as a positive control in both experiments. The cell viability was assessed using the 3-(4.5-dimethylthiazol-2-yl)-2.5-diphenyl tetrazolium bromide (MTT, Sigma-Aldrich, St. Louis, MO, USA) method. The optical density (OD) values were read using a microplate spectrophotometer (Molecular Devices, Spectra Max Plus, San Jose, CA, USA) at 570 nm. Results were entered into Microsoft Excel (version 10.0) spreadsheets, and the 50% Leishmania and macrophage inhibitory concentrations (IC50 and CC50, respectively) were calculated by applying a sigmoidal regression of the dose–response curve. The SI was calculated by dividing the CC50 with the respective IC50 values.

[5] = Cytotoxicity in mammalian cells (MTT); assay type: cell-based; settings: mouse; murine macrophages, 48 h at 37 °C in 5% CO2, MTT, mean ± standard deviation
Experimental: as §1

melting point: 197 to 198.4 °C | IC50 ([4]; Leishmania braziliensis, 48 h at 24 °C, MTT, mean ± standard deviation): 106 ± 16.7 µg/mL (≈ 210 µM)
SMILES: CCN(CC)c1ccc2cc(-n3cc(CNC(=O)/C=C/c4ccc(OC)c(OC)c4)nn3)c(=O)oc2c1 [Compound 28, N-((1-(7-(diethylamino)-2-oxo-2H-chromen-3-yl)-1H-1,2,3-triazol-4-yl)methyl) (3,4-dimethoxy) cinnamide]
ΔΨm, JC-1 ratio of red/green fluorescence [1]: 4.0 | Increase in ROS levels in treated and infected cells compared with untreated cells [2]: 44.1% | Fold increase in ROS production compared with untreated parasites [3]: 2.5 fold | Selectivity index (SI), ratio CC50/IC50, promastigotes ([4]; CC50 murine macrophages / IC50 promastigotes): 11.1 | CC50 at 48 h [5]: > 600 µg/mL
